Among the data in patent publication EP3057950B1, “PHENYL LINKED QUINOLINYL MODULATORS OF ROR-GAMMA-T” (Janssen Pharmaceutica NV, priority 2013, dated 2015) are Kd, IC50 and inhibition values, retold here.

Assay [1] concerns the target T1, wild type human RORγt ligand binding domain (RORγt LBD) (Homo sapiens, UniProt P51449).
T1 construct: His-tag (N); TurboTEV protease cleavage site (ENLYFQG) (N); made in house; host or cells: E. coli (pHIS1, modified pET expression vector)
T1 sequence (P51449 269-508 limits assumed): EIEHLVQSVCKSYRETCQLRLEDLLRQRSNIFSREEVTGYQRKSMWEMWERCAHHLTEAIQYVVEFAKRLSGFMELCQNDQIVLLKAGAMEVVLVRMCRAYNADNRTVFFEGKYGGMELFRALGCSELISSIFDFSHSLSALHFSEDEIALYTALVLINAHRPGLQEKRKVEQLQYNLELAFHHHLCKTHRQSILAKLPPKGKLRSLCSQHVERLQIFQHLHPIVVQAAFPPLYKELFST
Kind of assay: RORγt ThermoFluor® Assay (thermal shift, binding affinity). The note with it: pH 7.0, estimated from concentration response curves. The protocol:
This approach is applicable to a wide variety of systems, and rigorous in theoretical interpretation through quantitation of equilibrium binding constants (KD).
The shift in the melting point described as a ΔTm is proportional to the concentration and affinity of the ligand.
Protein and compound solutions are dispensed into black 384-well polypropylene PCR microplates (Abgene) and overlayed with silicone oil (1 µL, Fluka, type DC 200) to prevent evaporation.
Bar-coded assay plates are robotically loaded onto a thermostatically controlled PCR-type thermal block and then heated at a typical ramp-rate of 1 °C/min for all experiments. Fluorescence was measured by continuous illumination with UV light (Hamamatsu LC6) supplied via fiber optic and filtered through a band-pass filter (380-400 nm; >6 OD cutoff). Fluorescence emission of the entire 384-well plate was detected by measuring light intensity using a CCD camera (Sensys, Roper Scientific) filtered to detect 500 ± 25 nm, resulting in simultaneous and independent readings of all 384 wells. Images were collected at each temperature, and the sum of the pixel intensity in a given area of the assay plate was recorded versus temperature. Reference wells contained RORγt without compounds, and the assay conditions were as follows: • 0.065 mg/mL RORγt • 60 µM 1,8-ANS • 100 mM Hepes, pH 7.0 • 10 mM NaCl • 2.5 mM GSH • 0.002% Tween-20
Project compounds were arranged in a pre-dosed mother plate (Greiner Bio-one) wherein compounds are serially diluted in 100% DMSO by 1:2 from a high concentration of 10 mM over 12 columns within a series (column 12 is a reference well containing DMSO, no compound). The compounds were robotically dispensed directly into assay plates (1x = 46 nL) using a Hummingbird capillary liquid handling instrument (Digilab). Following compound dispense, protein and dye in buffer was added to achieve the final assay volume of 3 µL, followed by 1 µL of silicone oil.

In assay [2] the target is T2, wild type human RORγt LBD (Homo sapiens, UniProt P51449).
T2 construct: expressed in transfected cells; host or cells: HEK293T
T2 sequence (P51449 269-508 limits assumed): T1 sequence (P51449 269-508 limits assumed)
Kind of assay: RORγt Reporter Assay (GAL4-RORγt LBD luciferase in HEK293T cells). The note with it: for IC50: compounds for 24 hours; for inhibition at 6 µM: HEK-293T. In kind it is cell-based. An excerpt:
A reporter assay was used to test functional activity of RORγt modulatory compounds on transcriptional activation driven by the RORγt LBD. Cells used in the assay were co-transfected with two constructs. The first construct, pBIND-RORγt LBD, contained the wild type human RORγt LBD fused to the DNA binding domain of the GAL4 protein. The second construct, pGL4.31 (Promega Cat no. C935A), contained multiple GAL4 responsive DNA elements upstream of firefly luciferase. […] The mutant construct was called pBIND-RORγt-AF2.
The pBIND vector contains the GAL4 DNA Binding Domain (GAL4 DBD) and the renilla luciferase gene under control of the SV40 promoter. Renilla luciferase expression serves as a control for transfection efficiency and cell viability.
The reporter assay was performed by transiently transfecting HEK293T cells with 5 µg of pBIND-RORγt LBD or pBIND-RORγt LBD-AF2 and 5 µg pGL4.31 (Promega Cat no. C935A) using Fugene 6 (Invitrogen Cat no. E2691) at a 1:6 ratio of DNA: Fugene 6 in a T-75 flask in which cells were at least 80% confluent. Twenty four hours after bulk transfection, cells were plated into 96-well plates at 50,000 cells/well in phenol-red free DMEM containing 5% Lipid Reduced FCS and Pen/Strep. Six hours after plating, cells were treated with compounds for 24 hours. Media was removed and cells were lysed with 50 µL 1x Glo Lysis Buffer (Promega). Dual Glo Luciferase Reagent (50 µL/well) was then added and firefly luciferase luminescence was read on an Envision after a ten minute incubation. Finally, Stop and Glo reagent (50 µL/well) was added and renilla luciferase luminescence was read on an Envision instrument after a ten minute incubation. To calculate the effect of compounds on RORγt activity, the ratio of firefly to renilla luciferase was determined and plotted against compound concentration. Agonist compounds increase RORγt-driven luciferase expression, and antagonist or inverse agonist compounds decrease luciferase expression.
(In general: In a reporter assay the amount or activity of a reporter protein is the signal.)

Where [3] appears, read: HEK293T cells, read-out: RORγt reporter Assay, IC50.
Setting [4] is: read-out: RORγt reporter Assay, % inhibition @ 6 µM, @ 6 µM, HEK293T cells.

Structures can show the parent of a compound that is named as a salt. Where two headings read alike, the source gives them in different places.

As for `COc1c(-c2ccccc2)c(Cl)nc2ccc(C(O)(c3sc(C)nc3C)c3cncn3C)cc12` (stereo not drawn) [Example 38, (2-Chloro-4-methoxy-3-phenylquinolin-6-yl)(2,4-dimethylthiazol-5-yl)(1-methyl-1H-imidazol-5-yl)methanol•TFA], in assay [1], the Kd (in general, a measure of binding affinity in units of concentration) is 0.26 nM. Also, the IC50 (usually the concentration needed to halve the response being measured) in assay [2] (setting [3]) worked out at 0.03 µM. Further, the inhibition (usually the change of the read-out against control, counted positive when it falls) at 6 µM in assay [2] (setting [4]) was determined as 93%.

For the compound `Cc1ncc(C(O)(c2ccc3nc(Cl)c(-c4ccccc4)c(Cl)c3c2)c2cnnn2C)n1C` (stereo not drawn) [Example 39, (2,4-Dichloro-3-phenylquinolin-6-yl)(1,2-dhnethyl-1H-imidazol-5-yl)(1-methyl-1H-1,2,3-triazol-5-yl)methanol], the Kd in assay [1] was 5.2 nM. Besides, the IC50 in assay [2] (setting [3]) was 0.034 µM. Also, in assay [2] (setting [4]), the inhibition at 6 µM worked out at 103%.

Consider `COc1c(-c2ccccc2)c(Cl)nc2ccc(C(O)(c3cnnn3C)c3cnc(C)n3C)cc12` (stereo not drawn) [Example 40a, (2-Chloro-4-metboxy-3-phenylquinolin-6-yl)(1,2-dimethyl-1H-imidazol-5-yl)(1-methyl-1H-1,2,3-triazol-5-yl)methanol•TFA], for which, in assay [1], the Kd was 1.5 nM. Moreover, the IC50 in assay [2] (setting [3]) is 0.023 µM. Also, the inhibition at 6 µM in assay [2] (setting [4]) stood at 104%.

Consider `COc1nc2ccc(C(O)(c3cnnn3C)c3cnc(C)n3C)cc2c(Cl)c1-c1ccccc1` (stereo not drawn) [Example 41a, (4-Chloro-2-methoxy-3-phenylquinolin-6-yl)(1,2-dimethyl-1H-imidazol-5-yl)(1-methyl-1H-1,2,3-triazol-5-yl)methanol•TFA], for which the dissociation constant (Kd) in assay [1] is 89 nM. In assay [2] (setting [3]), the IC50 stood at 0.32 µM. For the same compound, the inhibition at 6 µM in assay [2] (setting [4]) worked out at 98%.

As to `CSc1nc2ccc(C(O)(c3sc(C)nc3C)c3cncn3C)cc2c(SC)c1-c1ccccc1` (stereo not drawn) [Example 42, (2,4-Bis(methylthio)-3-phenylquinolin-6-yl)(2,4-dimethylthiazol-5-yl)(1-methyl-1H-imidazol-5-yl)methanol•TFA], in assay [1], the Kd is 0.51 nM. Besides, the IC50 in assay [2] (setting [3]) was 0.017 µM. In addition, in assay [2] (setting [4]), the inhibition at 6 µM is 103%.

On to `CSc1nc2ccc(C(O)(c3sc(C)nc3C)c3cncn3C)cc2c(Cl)c1-c1ccccc1` (stereo not drawn) [Example 43, (4-Chloro-2-(methylthio)-3-phenylquinolin-6-yl)(2,4-dimethylthiazol-5-yl)(1-methyl-1H-imidazol-5-yl)methanol•TFA], for which the Kd in assay [1] was 3.5 nM. The IC50 in assay [2] (setting [3]) was 0.039 µM. Also, the inhibition at 6 µM in assay [2] (setting [4]) is 98%.

For `Cn1cncc1C(O)(c1ccc(Cl)cc1)c1ccc2nc(OCCN3CC3)c(-c3ccccc3)c(Cl)c2c1` (stereo not drawn) [Example 44, [2-(2-Aziridin-1-ylethoxy)-4-chloro-3-phenylquinolin-6-yl](4-chlorophenyl)(1-methyl-1H-imidazol-5-yl)methanol], the Kd in assay [1] was 5400 nM. Also, the inhibition at 6 µM in assay [2] (read-out: RORγt reporter Assay, % inhibition @ 6 µM) came out at 31%. Besides, the IC50 in assay [2] (RORγt reporter Assay, IC50 (µM), HEK293T cells) was > 6 µM.

For `Cn1cncc1C(O)(c1ccc(Cl)cc1)c1ccc2nc(OCC(F)(F)F)c(-c3ccccc3)c(Cl)c2c1` (stereo not drawn) [Example 45, (4-Chlorophenyl)[4-chloro-3-phenyl-2-(2,2,2-trifluoroethoxy)quinolin-6-yl](1-methyl-1H-imidazol-5-yl)methanol•TFA], in assay [1], the Kd was 770 nM. Moreover, in assay [2] (setting [3]), the half-inhibitory concentration (IC50) came out at 0.57 µM. Also, the inhibition at 6 µM in assay [2] (setting [4]) is 93%.

With `CN(CCO)c1nc2ccc(C(O)(c3ccc(Cl)cc3)c3cncn3C)cc2c(Cl)c1-c1ccccc1` (stereo not drawn) [Example 46, 2-[{4-Chloro-6-[(4-chlorophenyl)(hydroxy)(1-methyl-1H-imidazol-5-yl)methyl]-3-phenylquinolin-2-yl}(methyl)amino]ethanol•TFA], the Kd in assay [1] is 230 nM. Also, in assay [2] (setting [3]), the IC50 stood at 0.83 µM. In assay [2] (setting [4]), the inhibition at 6 µM amounted to 106%.

For `Cc1nc(C)c(C(O)(c2ccc3nc(C#N)c(-c4ccccc4)c(C#N)c3c2)c2cnnn2C)s1` (stereo not drawn) [Example 47a, 6-((2,4-Dimethylthiazol-5-yl)(hydroxy)(1-methyl-1H-1,2,3-triazol-5-yl)methyl)-3-phenylquinoline-2,4-dicarbonitrile], the Kd in assay [1] is 8.3 nM. Further, in assay [2] (setting [3]), the half-maximal inhibitory concentration (IC50) amounted to 0.04 µM. The inhibition at 6 µM in assay [2] (setting [4]) came to 98%.

`COCCOc1nc2ccc(C(O)(c3ccc(Cl)cc3)c3cncn3C)cc2c(Cl)c1-c1ccccc1` (stereo not drawn) [Example 48, [4-Chloro-2-(2-methoxyethoxy)-3-phenylquinolin-6-yl](4-chlorophenyl)(1-methyl-1H-imidazol-5-yl)methanol]: the Kd in assay [1] is 810 nM. Moreover, in assay [2] (setting [3]), the IC50 is 0.67 µM. For the same compound, the inhibition at 6 µM in assay [2] (setting [4]) is 103%.

For `COCCN(C)c1nc2ccc(C(O)(c3ccc(Cl)cc3)c3cncn3C)cc2c(Cl)c1-c1ccccc1` (stereo not drawn) [Example 50, {4-Chloro-2-[(2-methoxyethyl)(methyl)amino]-3-phenylquinolin-6-yl}(4-chlorophenyl)(1-methyl-1H-imidazol-5-yl)methanol], in assay [1], the Kd was 90 nM. Also, the IC50 in assay [2] (setting [3]) came to 0.031 µM. In addition, the inhibition at 6 µM in assay [2] (setting [4]) came out at 99%.

As to `CCC(=O)NCCOc1nc2ccc(C(O)(c3ccc(Cl)cc3)c3cncn3C)cc2c(Cl)c1-c1ccccc1` (stereo not drawn) [Example 51, N-[2-({4-Chloro-6-[(4-chlorophenyl)(hydroxy)(1-methyl-1H-imidazol-5-yl)methyl]-3-phenylquinolin-2-yl}oxy)ethyl]propanamide], the Kd in assay [1] is 1100 nM. In assay [2] (setting [3]), the IC50 came out at 1.1 µM. Also, the inhibition at 6 µM in assay [2] (setting [4]) was determined as 96%.

With `Cn1cncc1C(O)(c1ccc(Cl)cc1)c1ccc2nc(OCCN)c(-c3ccccc3)c(Cl)c2c1` (stereo not drawn) [Example 52, [2-(2-Aminoethoxy)4-chloro-3-phenylquinolin-6-yl](4-chlorophenyl)(1-methyl-1H-imidazol-5-yl)methanol], the Kd in assay [1] is 3500 nM. Further, the IC50 in assay [2] (setting [3]) was ~6 µM. Further, the inhibition at 6 µM in assay [2] (setting [4]) was 52%.

In the case of `Cn1cncc1C(O)(c1ccc(C(F)(F)F)nc1)c1ccc2nc(OCC(F)(F)F)c(-c3ccccc3)c(Cl)c2c1` (stereo not drawn) [Example 54, [4-Chloro-3-phenyl-2-(2,2,2-trifluoroethoxy)quinolin-6-yl](1-methyl-1H-imidazol-5-yl)[6-(trifluoromethyl)pyridin-3-yl]methanol], the Kd in assay [1] was 380 nM. The IC50 in assay [2] (setting [3]) was found to be 0.44 µM. Further, the inhibition at 6 µM in assay [2] (setting [4]) is 102%.

`Cn1cncc1C(O)(c1ccc2nc(Cl)c(-c3ccccc3)c(Cl)c2c1)c1ncccn1` (stereo not drawn) [Example 55, (2,4-Dichloro-3-phenylquinolin-6-yl)(1-methyl-1H-imidazol-5-yl)pyrimidin-2-ylmethanol]: in assay [1], the Kd is 3300 nM. In assay [2] (setting [3]), the IC50 was ~3 µM. Also, in assay [2] (setting [4]), the inhibition at 6 µM was found to be 70%.

As to `CON(C)c1nc2ccc(C(O)(c3ccc(C(F)(F)F)nc3)c3cncn3C)cc2c(Cl)c1-c1ccccc1` (stereo not drawn) [Example 56, {4-Chloro-2-[methoxy(methyl)amino]-3-phenylquinolin-6-yl}(1-methyl-1H-imidazol-5-yl)[6-(trifluoromethyl)pyridin-3-yl]methanol], in assay [1], the Kd is 60 nM. In assay [2] (setting [3]), the IC50 was determined as 0.023 µM. The inhibition at 6 µM in assay [2] (setting [4]) amounted to 102%.
